pEC50, pIC50: −log10 of the molar value.
Test system: HT-29 cells
Assay: In vitro assay for protection of HT-29 cells from necroptosis (TNFα/Smac mimetic/Z-VAD-FMK induction, CCK8 readout)
Format: cell-based
Details: TNFα/Smac mimetic/Z-VAD-FMK for 24 h; inhibition of necroptosis; read-out: HT-29 (EC50)

`C[C@H](NC(=O)c1cn(C)c2ccc(-c3ccn4nc(NC(=O)N5CCOCC5)nc4c3)cc12)c1cccc(F)c1` [Compound 118] and `C[C@H](NC(=O)c1cn(C)c2ccc(-c3ccn4nc(NC(=O)[C@H]5CCCO5)nc4c3)cc12)c1cccc(F)c1` [Compound 119] cannot be ordered by pEC50: greater than 9.00 for the first, greater than 9.00 for the second.

First: C[C@H](NC(=O)c1cn(C)c2ccc(-c3ccn4nc(NC(=O)CC(=O)O)nc4c3)cc12)c1ccc(F)cc1 [Compound 63]
Second: CCOC(=O)Nc1nc2cc(-c3ccc4c(c3)c(C(=O)N[C@@H](C)c3ccc(F)cc3)cn4C)ccn2n1 [Compound 17]
The pEC50 of the first is lower: 5.00 to 6.00 for the first, greater than 9.00 for the second. The second is the more potent here.

`C[C@H](NC(=O)c1cn(C)c2ccc(-c3ccn4nc(NC(=O)CN5CC6CC5CO6)nc4c3)cc12)c1ccc(Cl)cc1` (stereo partly drawn) [Compound 79] and `C[C@H](NC(=O)c1cn(C)c2ccc(-c3ccn4nc(NC(=O)CN5CCOC[C@@H]5C)nc4c3)cc12)c1ccc(Cl)cc1` [Compound 82] cannot be ordered by pEC50: greater than 9.00 for the first, greater than 9.00 for the second.

First: C[C@H](NC(=O)c1cn(C)c2ccc(-c3ccn4nc(NC(=O)c5ccnc(F)c5)nc4c3)cc12)c1ccc(F)cc1 [Compound 115]
Second: C[C@H](NC(=O)c1cn(C)c2ccc(-c3ccn4nc(NC(=O)Cn5cncn5)nc4c3)cc12)c1ccc(F)cc1 [Compound 57]
The pEC50 of the first is higher: greater than 9.00 for the first, 7.00 to 8.00 for the second.

`Cn1cc(C(=O)N[C@H](c2ccc(F)cc2)C(F)F)c2cc(-c3ccn4nc(NC(=O)CC#N)nc4c3)ccc21` [Compound 164] and `Cn1cc(C(=O)N[C@H](c2ccc(F)cc2)C(F)F)c2cc(-c3ccn4nc(NC(=O)CN5CCCCC5)nc4c3)ccc21` [Compound 163] cannot be ordered by pEC50: greater than 9.00 for the first, greater than 9.00 for the second.

`C[C@H](NC(=O)c1cn(C)c2ccc(-c3ccn4nc(NC(=O)CN(C)C)nc4c3)cc12)c1ccc(Cl)cc1` [Compound 78] and `C[C@@H]1CN(CC(=O)Nc2nc3cc(-c4ccc5c(c4)c(C(=O)N[C@@H](C)c4ccc(Cl)cc4)cn5C)ccn3n2)C[C@H](C)O1` [Compound 85] cannot be ordered by pEC50: greater than 9.00 for the first, greater than 9.00 for the second.

Compared with `COCCn1cc(C(=O)N[C@@H](CF)c2ccc(F)cc2)c2cc(-c3ccn4nc(NC(=O)N5CCOCC5)nc4c3)ccc21` [Compound 214], `Cn1nc(C(=O)N[C@@H](CF)c2ccc(F)cc2)c2cc(-c3ccn4nc(NC(=O)N5CCOCC5)nc4c3)ccc21` [Compound 189] is higher in pEC50: 7.00 to 8.00 for the first, greater than 9.00 for the second. The second is the more potent here.

Compared with `CC(C(=O)Nc1cn(C)c2ccc(-c3ccn4nc(NC(=O)[C@H]5CCCO5)nc4c3)cc12)c1ccc(F)cc1` (stereo partly drawn) [Compound 179], `Cn1cc(C(=O)N[C@@H](CF)c2ccc(F)cc2)c2cc(-c3ccn4nc(NC(=O)C5CC5)nc4c3)ccc21` [Compound 114] is higher in pEC50: 6.00 to 7.00 for the first, greater than 9.00 for the second.

Compared with `CC(=O)Nc1nc2cc(-c3ccc4c(c3)c(C(=O)N[C@H]3CCCc5ccc(F)cc53)cn4C)ccn2n1` [Compound 145], `Cn1cc(C(=O)N[C@H]2CCCc3ccc(F)cc32)c2cc(-c3ccn4nc(NC(=O)[C@H]5CCCO5)nc4c3)ccc21` [Compound 146] is lower in pEC50: 8.00 to 9.00 for the first, 7.00 to 8.00 for the second. The first is the more potent here.

Compared with `C[C@H](NC(=O)c1cn(C)c2ccc(-c3ccn4nc(NC(=O)CN5CCCC(CO)C5)nc4c3)cc12)c1ccc(F)cc1` (stereo partly drawn) [Compound 44], `COC1CCN(CC(=O)Nc2nc3cc(-c4ccc5c(c4)c(C(=O)N[C@@H](C)c4ccc(F)cc4)cn5C)ccn3n2)C1` (stereo partly drawn) [Compound 19] is higher in pEC50: 8.00 to 9.00 for the first, greater than 9.00 for the second. The second is the more potent here.

`C[C@H](NC(=O)c1cn(C)c2ccc(-c3ccn4nc(NC(=O)CN5CCC(C#N)CC5)nc4c3)cc12)c1ccc(F)cc1` [Compound 23] and `C[C@H](NC(=O)c1cn(C)c2ccc(-c3ccn4nc(NC(=O)CN5CCN(CCO)CC5)nc4c3)cc12)c1ccc(F)cc1` [Compound 70] cannot be ordered by pEC50: greater than 9.00 for the first, greater than 9.00 for the second.

First: CC(C)Nc1nc2cc(-c3ccc4c(c3)c(C(=O)N[C@@H](CF)c3ccc(F)cc3)cn4C)ccn2n1 [Compound 99]
Second: Cn1cc(C(=O)N[C@@H](CF)c2ccc(F)cc2)c2cc(-c3ccn4nc(NC(=O)C5CC5F)nc4c3)ccc21 (stereo partly drawn) [Compound 113]
The pEC50 of the first is higher: greater than 9.00 for the first, 8.00 to 9.00 for the second.

First: C[C@H](NC(=O)c1cn(C)c2ccc(-c3ccn4nc(NC(=O)C5CC5)nc4c3)cc12)C(C)(C)C [Compound 93]
Second: C[C@H](NC(=O)c1cn(C)c2ccc(-c3ccn4nc(NC(=O)c5cnn(C)c5)nc4c3)cc12)C(C)(C)C [Compound 91]
The pEC50 of the first is higher: 6.00 to 7.00 for the first, 5.00 to 6.00 for the second. The first is the more potent here.

Compared with `Cn1cc(C(=O)N[C@H]2CCCc3cc(F)ccc32)c2cc(-c3ccn4nc(NC(=O)[C@H]5CCCO5)nc4c3)ccc21` [Compound 137], `C[C@H](NC(=O)c1cn(C)c2ccc(-c3ccn4nc(NC(=O)c5cnn(C)c5)nc4c3)cc12)c1cccc(F)c1` [Compound 120] is higher in pEC50: 7.00 to 8.00 for the first, greater than 9.00 for the second.

`COCCOCCOCC(=O)Nc1nc2cc(-c3ccc4c(c3)c(C(=O)N[C@@H](C)c3ccc(F)cc3)cn4C)ccn2n1` [Compound 25] and `C[C@H](NC(=O)c1cn(C)c2ccc(-c3ccn4nc(NC(=O)CNCC5CC5)nc4c3)cc12)c1ccc(F)cc1` [Compound 66] cannot be ordered by pEC50: greater than 9.00 for the first, greater than 9.00 for the second.

First: CC(c1ccc(F)cc1)n1cnc(-c2cn(C)c3ccc(-c4ccn5nc(NC(=O)C6CC6F)nc5c4)cc23)n1 (stereo not drawn) [Compound 209]
Second: Cn1cc(C2=NC(c3ccc(F)cc3)CO2)c2cc(-c3ccn4nc(NC(=O)C5CC5F)nc4c3)ccc21 (stereo not drawn) [Compound 211]
The pEC50 of the first is lower: 6.00 to 7.00 for the first, 7.00 to 8.00 for the second.

Compared with `C[C@H](NC(=O)c1nn(C)c2ccc(-c3ccn4nc(NC(=O)C5CC5)nc4c3)cc12)c1ccc(F)cc1` [Compound 192], `CC(C(=O)Nc1nn(C)c2ccc(-c3ccn4nc(NC(=O)CN(C)C)nc4c3)cc12)c1ccc(F)cc1` (stereo not drawn) [Compound 180] is lower in pEC50: greater than 9.00 for the first, 5.00 to 6.00 for the second. The first is the more potent here.

Compared with `Cn1cc(C(=O)N[C@@H](CF)c2ccc(F)cc2)c2cc(-c3ccn4nc(NC(=O)CN5CCCCC5)nc4c3)ccc21` [Compound 96], `C[C@H](NC(=O)c1cn(C)c2ccc(-c3ccn4nc(NC(=O)CN5CCOCC5C(=O)O)nc4c3)cc12)c1ccc(F)cc1` (stereo partly drawn) [Compound 33] is lower in pEC50: greater than 9.00 for the first, 5.00 to 6.00 for the second.

Compound `Cn1cc(C(=O)Nc2nc3cc(-c4ccc5c(c4)c(C4=NC(c6ccc(F)cc6)CO4)cn5C)ccn3n2)cn1` (stereo not drawn) [Compound 213] has a pEC50 of 7.00 to 8.00.

Target: T1, RIPK1 Kinase (Homo sapiens, UniProt Q13546)
T1 construct: purchased Eurofins (Kinase Profiler service)
T1 sequence (Q13546 1-671): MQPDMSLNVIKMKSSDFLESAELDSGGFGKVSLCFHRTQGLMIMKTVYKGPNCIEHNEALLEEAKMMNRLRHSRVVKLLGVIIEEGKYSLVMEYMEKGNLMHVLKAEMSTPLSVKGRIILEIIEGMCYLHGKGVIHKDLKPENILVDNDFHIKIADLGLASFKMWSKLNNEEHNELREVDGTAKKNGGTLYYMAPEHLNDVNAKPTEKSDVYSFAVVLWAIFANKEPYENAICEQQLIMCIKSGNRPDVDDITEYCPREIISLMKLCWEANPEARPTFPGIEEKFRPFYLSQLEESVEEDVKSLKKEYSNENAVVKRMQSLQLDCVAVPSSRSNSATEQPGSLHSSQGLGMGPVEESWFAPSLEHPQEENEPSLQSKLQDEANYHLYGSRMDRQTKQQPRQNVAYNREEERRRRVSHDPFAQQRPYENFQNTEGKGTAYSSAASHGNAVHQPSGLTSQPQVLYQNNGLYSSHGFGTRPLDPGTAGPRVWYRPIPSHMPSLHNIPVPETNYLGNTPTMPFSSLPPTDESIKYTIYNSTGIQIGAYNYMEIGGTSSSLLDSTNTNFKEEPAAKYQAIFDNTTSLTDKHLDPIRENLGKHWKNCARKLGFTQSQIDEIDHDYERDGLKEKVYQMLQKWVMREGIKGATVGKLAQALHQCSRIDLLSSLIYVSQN
Assay: biochemical
Details: not given

Compared with `Cn1cc(C(=O)Nc2nc3cc(-c4ccc5c(c4)c(C(=O)N[C@H]4CCc6ccc(F)cc64)cn5C)ccn3n2)cn1` [Compound 122], `Cn1cc(C(=O)N[C@H]2CCc3ccc(F)cc32)c2cc(-c3ccn4nc(NC(=O)[C@H]5CCCO5)nc4c3)ccc21` [Compound 121] is higher in pIC50: 6.00 to 7.00 for the first, 7.00 to 8.00 for the second.

`C[C@H](NC(=O)c1cn(C)c2ccc(-c3ccn4nc(NC(=O)CN5CCOC(C)(C)C5)nc4c3)cc12)c1ccc(F)cc1` [Compound 18] and `C[C@H](NC(=O)c1cn(C)c2ccc(-c3ccn4nc(NC(=O)CN5CC(C)(C#N)C5)nc4c3)cc12)c1ccc(F)cc1` [Compound 29] fall in the same range of pIC50: 7.00 to 8.00 for the first, 7.00 to 8.00 for the second.

`C[C@H](NC(=O)c1nn(C)c2ccc(-c3ccn4nc(NC(=O)CN5CCOCC5)nc4c3)cc12)c1ccc(F)cc1` [Compound 196] and `C[C@H](NC(=O)c1cn(C)c2ccc(-c3ccn4nc(NC(=O)CN5CCC(N6CCOCC6)CC5)nc4c3)cc12)c1ccc(F)cc1` [Compound 38] fall in the same range of pIC50: 7.00 to 8.00 for the first, 7.00 to 8.00 for the second.

`C[C@H](NC(=O)c1cn(C)c2ccc(-c3ccn4nc(NC(=O)CN5CCOC[C@@H]5C)nc4c3)cc12)c1ccc(F)cc1` [Compound 60] and `C[C@H](NC(=O)c1cn(C)c2ccc(-c3ccn4nc(NC(=O)CN5C[C@H]6C[C@@H]5CO6)nc4c3)cc12)c1ccc(F)cc1` [Compound 39] fall in the same range of pIC50: 7.00 to 8.00 for the first, 7.00 to 8.00 for the second.

`C[C@H](NC(=O)c1cn(C)c2ccc(-c3ccn4nc(NC(=O)C(=O)N5CCOCC5)nc4c3)cc12)c1ccc(F)cc1` [Compound 9] and `C[C@H](NC(=O)c1cn(C)c2ccc(-c3ccn4nc(NC(=O)C5CCOC5)nc4c3)cc12)c1ccc(F)cc1` (stereo partly drawn) [Compound 106] fall in the same range of pIC50: 7.00 to 8.00 for the first, 7.00 to 8.00 for the second.

`C[C@H](NC(=O)c1cn(C)c2ccc(-c3ccn4nc(NC(=O)CN5CC(F)(F)C5)nc4c3)cc12)c1ccc(F)cc1` [Compound 42] and `C[C@H](NC(=O)c1cn(C)c2ccc(-c3ccn4nc(NC(=O)CN5CCN(C)CC5)nc4c3)cc12)c1ccc(F)cc1` [Compound 51] fall in the same range of pIC50: 7.00 to 8.00 for the first, 7.00 to 8.00 for the second.

First: CC(C(=O)Nc1nn(C)c2ccc(-c3ccn4nc(NC(=O)C5CC5)nc4c3)cc12)c1ccc(F)cc1 (stereo not drawn) [Compound 182]
Second: Cn1cc(C(=O)N[C@H](c2ccc(F)cc2)C(F)F)c2cc(-c3ccn4nc(NC(=O)C5CC5)nc4c3)ccc21 [Compound 161]
The pIC50 of the first is lower: 6.00 to 7.00 for the first, 8.00 to 9.00 for the second. The second is the more potent here.

`Cn1cc(C(=O)N[C@H]2CCc3cc(C#N)ccc32)c2cc(-c3ccn4nc(NC(=O)C5CC5)nc4c3)ccc21` [Compound 130] and `Cn1cc(C(=O)N2CC(F)CC2c2ccc(F)cc2)c2cc(-c3ccn4nc(NC(=O)C5CC5)nc4c3)ccc21` (stereo not drawn) [Compound 156] fall in the same range of pIC50: 7.00 to 8.00 for the first, 7.00 to 8.00 for the second.

`COCCNCC(=O)Nc1nc2cc(-c3ccc4c(c3)c(C(=O)N[C@@H](C)c3ccc(F)cc3)cn4C)ccn2n1` [Compound 68] and `C[C@H](NC(=O)c1cn(C)c2ccc(-c3ccn4nc(NC(=O)[C@@H]5CCC(=O)N5)nc4c3)cc12)c1ccc(F)cc1` [Compound 14] fall in the same range of pIC50: 7.00 to 8.00 for the first, 7.00 to 8.00 for the second.

`C[C@H](NC(=O)c1cn(C)c2ccc(-c3ccn4nc(NC(=O)CN5CC6CCC(C5)O6)nc4c3)cc12)c1ccc(F)cc1` [Compound 71] was tested, and the pIC50 was 7.00 to 8.00.

Same assay, conditions: compound 0.001-10 µM; read-out: RIPK1(IC50)

`CC(=O)Nc1nc2cc(-c3ccc4c(c3)c(C(=O)N[C@H]3CCCc5cc(F)ccc53)cn4C)ccn2n1` [Compound 138] gave a pIC50 of 7.00 to 8.00.
